Molecules are shown by their SMILES. Like-named read-outs stand apart in the source and are kept apart here.

Broadly, the EC50 is the concentration needed to bring the measured effect to its halfway point.

For the experiment, the target named is T1, GLP-1 receptor (Rattus norvegicus, UniProt P32301).
T1 construct: 96-well assay plate containing RIN m5f cell membranes in an ATP/GTP mixture; endogenous in cells; host or cells: RIN m5f cell membranes
T1 sequence (P32301 22-463): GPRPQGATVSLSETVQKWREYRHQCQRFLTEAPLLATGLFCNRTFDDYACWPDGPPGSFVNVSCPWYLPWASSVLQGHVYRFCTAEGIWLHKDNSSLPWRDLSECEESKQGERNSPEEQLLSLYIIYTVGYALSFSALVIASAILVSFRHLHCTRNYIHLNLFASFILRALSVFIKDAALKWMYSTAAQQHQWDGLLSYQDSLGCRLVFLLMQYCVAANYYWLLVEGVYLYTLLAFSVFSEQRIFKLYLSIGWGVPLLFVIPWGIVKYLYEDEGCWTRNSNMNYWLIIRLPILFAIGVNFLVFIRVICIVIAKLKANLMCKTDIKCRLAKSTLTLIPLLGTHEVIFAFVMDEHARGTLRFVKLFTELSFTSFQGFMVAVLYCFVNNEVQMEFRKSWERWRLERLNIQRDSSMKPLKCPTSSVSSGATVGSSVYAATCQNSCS
The experiment in a line: in vitro functional assay at the GLP-1 receptor (cyclase, cAMP production in RIN m5f cell membranes). In kind it is biochemical. As for the experimental part:
The compounds shown in Table 1 below were analyzed in an in vitro functional assay at the GLP-1 receptor. The assay was conducted as follows: Membrane fractions were prepared from confluent cultures of RIN m5f cells. Compounds were serially diluted with an assay buffer, and then added to a 96-well assay plate containing RIN m5f cell membranes in an ATP/GTP mixture. Cyclase activities were determined by measuring the production of cAMP induced through GLP-1 receptor activation. Quantification of cAMP production was achieved through a competitive chemiluminescence assay with a biotinylated-cAMP probe using Perkin Elmer Fusion™-Alpha Microplate Analyzer (AlphaScreen™ technology). The compound EC50 values were obtained through fitting the concentration-response curves to a four-parameter logistic equation within GraphPad PRISM® software.

[1] abbreviates: Cyclase GLP-1 Receptor EC50 (nM), Table 1, RIN m5f cell membranes, cAMP production (AlphaScreen).

For the molecule `CC[C@H](C)[C@H](NC(=O)[C@H](Cc1ccccc1)NC(=O)[C@H](CC(C)C)NC(=O)[C@H](CCCNC(=N)N)NC(=O)[C@@H](NC(=O)[C@H](C)NC(=O)[C@H](CCC(=O)O)NC(=O)[C@H](CCC(=O)O)NC(=O)[C@H](CCC(=O)O)NC(=O)[C@H](CC(C)C)NC(=O)[C@H](CCC(N)=O)NC(=O)[C@H](CCCCN)NC(=O)[C@H](CO)NC(=O)[C@H](CC(C)C)NC(=O)[C@H](CC(=O)O)NC(=O)[C@H](CO)NC(=O)[C@@H](NC(=O)[C@H](Cc1ccccc1)NC(=O)[C@@H](NC(=O)[C@H]1CSSC[C@H](NC(=O)[C@@H](N)Cc2c[nH]cn2)C(=O)N2CCC[C@H]2C(=O)N1)[C@@H](C)O)[C@@H](C)O)C(C)C)C(=O)N[C@@H](CCC(=O)O)C(=O)N[C@@H](Cc1ccccc1)C(=O)N[C@@H](CC(C)C)C(=O)N[C@@H](CCCCN)C(=O)N[C@@H](CC(N)=O)C(N)=O` [8D], the EC50 under setting [1] was found to be 106 nM.
Turning to `CC[C@H](C)[C@H](NC(=O)[C@H](Cc1ccccc1)NC(=O)[C@H](CC(C)C)NC(=O)[C@H](CCCNC(=N)N)NC(=O)[C@@H](NC(=O)[C@H](C)NC(=O)[C@H](CCC(=O)O)NC(=O)[C@H](CCC(=O)O)NC(=O)[C@H](CCC(=O)O)NC(=O)[C@H](CC(C)C)NC(=O)[C@H](CCC(N)=O)NC(=O)[C@H](CCCCN)NC(=O)[C@H](CO)NC(=O)[C@H](CC(C)C)NC(=O)[C@H](CC(=O)O)NC(=O)[C@H](CO)NC(=O)[C@@H](NC(=O)[C@H](Cc1ccccc1)NC(=O)[C@@H](NC(=O)CNC(=O)[C@@H]1CSCN1C(=O)CNC(=O)[C@@H](N)Cc1c[nH]cn1)[C@@H](C)O)[C@@H](C)O)C(C)C)C(=O)N[C@@H](CCC(=O)O)C(=O)N[C@@H](Cc1ccccc1)C(=O)N[C@@H](CC(C)C)C(=O)N[C@@H](CCCCN)C(=O)N[C@@H](CC(N)=O)C(N)=O` [5C], the EC50 (Table 1, RIN m5f cell membranes, cAMP production (AlphaScreen), read-out: Cyclase GLP-1 Receptor EC50) is 1.06 nM.
Molecule `CC[C@H](C)[C@H](NC(=O)[C@H](Cc1ccccc1)NC(=O)[C@H](CC(C)C)NC(=O)[C@H](CCCNC(=N)N)NC(=O)[C@@H](NC(=O)[C@H](C)NC(=O)[C@H](CCC(=O)O)NC(=O)[C@H](CCC(=O)O)NC(=O)[C@H](CCC(=O)O)NC(=O)[C@H](CC(C)C)NC(=O)[C@H](CCC(N)=O)NC(=O)[C@H](CCCCN)NC(=O)[C@H](CO)NC(=O)[C@H](CC(C)C)NC(=O)[C@H](CC(=O)O)NC(=O)[C@H](CO)NC(=O)[C@@H](NC(=O)[C@H](Cc1ccccc1)NC(=O)[C@@H](NC(=O)CNC(=O)[C@@H]1CCCN1C(=O)[C@H]1CSC([C@@H](N)Cc2c[nH]cn2)N1)[C@@H](C)O)[C@@H](C)O)C(C)C)C(=O)N[C@@H](CCC(=O)O)C(=O)N[C@@H](Cc1ccccc1)C(=O)N[C@@H](CC(C)C)C(=O)N[C@@H](CCCCN)C(=O)N[C@@H](CC(N)=O)C(N)=O` (some centres unmarked) [Compound in Figure 17B] came in with an EC50 under setting [1] of 668 nM.
The same measure, in the same setting: with `CC[C@H](C)[C@H](NC(=O)[C@H](Cc1ccccc1)NC(=O)[C@H](CC(C)C)NC(=O)[C@H](CCCNC(=N)N)NC(=O)[C@@H](NC(=O)[C@H](C)NC(=O)[C@H](CCC(=O)O)NC(=O)[C@H](CCC(=O)O)NC(=O)[C@H](CCC(=O)O)NC(=O)[C@H](CC(C)C)NC(=O)[C@H](CCC(N)=O)NC(=O)[C@H](CCCCN)NC(=O)[C@H](CO)NC(=O)[C@H](CC(C)C)NC(=O)[C@H](CC(=O)O)NC(=O)[C@H](CO)NC(=O)[C@@H](NC(=O)[C@H](Cc1ccccc1)NC(=O)[C@@H](NC(=O)CNC(=O)[C@@H]1CCCN1C(=O)[C@@H](NC(=O)[C@@H](N)Cc1c[nH]cn1)C(C)C)[C@@H](C)O)[C@@H](C)O)C(C)C)C(=O)N[C@@H](CCC(=O)O)C(=O)N[C@@H](Cc1ccccc1)C(=O)N[C@@H](CC(C)C)C(=O)N[C@@H](CCCCN)C(=O)N[C@@H](CC(N)=O)C(N)=O` [6C] the figure was 152 nM; with `CC[C@H](C)[C@H](NC(=O)[C@H](Cc1ccccc1)NC(=O)[C@H](CC(C)C)NC(=O)[C@H](CCCNC(=N)N)NC(=O)[C@@H](NC(=O)[C@H](C)NC(=O)[C@H](CCC(=O)O)NC(=O)[C@H](CCC(=O)O)NC(=O)[C@H](CCC(=O)O)NC(=O)[C@H](CC(C)C)NC(=O)[C@H](CCC(N)=O)NC(=O)[C@H](CCCCN)NC(=O)[C@H](CO)NC(=O)[C@H](CC(C)C)NC(=O)[C@H](CC(=O)O)NC(=O)[C@H](CO)NC(=O)[C@@H](NC(=O)[C@H](Cc1ccccc1)NC(=O)[C@@H](NC(=O)CN1CC[C@@H](C(=O)O)[C@H](NC(=O)[C@H](C)NC(=O)[C@@H](N)Cc2c[nH]cn2)C1=O)[C@@H](C)O)[C@@H](C)O)C(C)C)C(=O)N[C@@H](CCC(=O)O)C(=O)N[C@@H](Cc1c[nH]c2ccccc12)C(=O)N[C@@H](CC(C)C)C(=O)N[C@@H](CCCCN)C(=O)N[C@@H](CCC(N)=O)C(=O)NCC(=O)NCC(=O)N1CCC[C@H]1C(=O)N[C@@H](CO)C(=O)N[C@@H](CCCCN)C(=O)N[C@@H](CCC(=O)O)C(=O)N[C@H](C(=O)N[C@H](C(=O)N[C@@H](CO)C(=O)O)[C@@H](C)CC)[C@@H](C)CC` [16B], 0.18 nM.
Still for that read-out and setting: for `CC[C@H](C)[C@H](NC(=O)[C@H](Cc1ccccc1)NC(=O)[C@H](CC(C)C)NC(=O)[C@H](CCCNC(=N)N)NC(=O)[C@@H](NC(=O)[C@H](C)NC(=O)[C@H](CCC(=O)O)NC(=O)[C@H](CCC(=O)O)NC(=O)[C@H](CCC(=O)O)NC(=O)[C@H](CC(C)C)NC(=O)[C@H](CCC(N)=O)NC(=O)[C@H](CCCCN)NC(=O)[C@H](CO)NC(=O)[C@H](CC(C)C)NC(=O)[C@H](CC(=O)O)NC(=O)[C@H](CO)NC(=O)[C@@H](NC(=O)[C@H](Cc1ccccc1)NC(=O)[C@@H](NC(=O)[C@@H]1CSSC[C@@H](NC(=O)[C@@H](N)Cc2c[nH]cn2)C(=O)N2CCC[C@H]2C(=O)N1)[C@@H](C)O)[C@@H](C)O)C(C)C)C(=O)N[C@@H](CCC(=O)O)C(=O)N[C@@H](Cc1ccccc1)C(=O)N[C@@H](CC(C)C)C(=O)N[C@@H](CCCCN)C(=O)N[C@@H](CC(N)=O)C(N)=O` [8B] the value was 1.26 nM; for `CC[C@H](C)[C@H](NC(=O)[C@H](Cc1ccccc1)NC(=O)[C@H](CC(C)C)NC(=O)[C@H](CCCNC(=N)N)NC(=O)[C@@H](NC(=O)[C@H](C)NC(=O)[C@H](CCC(=O)O)NC(=O)[C@H](CCC(=O)O)NC(=O)[C@H](CCC(=O)O)NC(=O)[C@H](CC(C)C)NC(=O)[C@H](CCC(N)=O)NC(=O)[C@H](CCCCN)NC(=O)[C@H](CO)NC(=O)[C@H](CC(C)C)NC(=O)[C@H](CC(=O)O)NC(=O)[C@H](CO)NC(=O)[C@@H](NC(=O)[C@H](Cc1ccccc1)NC(=O)[C@@H](NC(=O)[C@H]1CSSC[C@@H](NC(=O)[C@@H](N)Cc2c[nH]cn2)C(=O)N2CCC[C@H]2C(=O)N1)[C@@H](C)O)[C@@H](C)O)C(C)C)C(=O)N[C@@H](CCC(=O)O)C(=O)N[C@@H](Cc1ccccc1)C(=O)N[C@@H](CC(C)C)C(=O)N[C@@H](CCCCN)C(=O)N[C@@H](CC(N)=O)C(N)=O` [8C], 969 nM.
`CC[C@H](C)[C@H](NC(=O)[C@H](Cc1ccccc1)NC(=O)[C@H](CC(C)C)NC(=O)[C@H](CCCNC(=N)N)NC(=O)[C@@H](NC(=O)[C@H](C)NC(=O)[C@H](CCC(=O)O)NC(=O)[C@H](CCC(=O)O)NC(=O)[C@H](CCC(=O)O)NC(=O)[C@H](CCSC)NC(=O)[C@H](CCC(N)=O)NC(=O)[C@H](CCCCN)NC(=O)[C@H](CO)NC(=O)[C@H](CC(C)C)NC(=O)[C@H](CC(=O)O)NC(=O)[C@H](CO)NC(=O)[C@@H](NC(=O)[C@H](Cc1ccccc1)NC(=O)[C@@H](NC(=O)CNC(=O)[C@@H]1CCCN1C(=O)[C@H](C)NC(=O)CCc1c[nH]cn1)[C@@H](C)O)[C@@H](C)O)C(C)C)C(=O)N[C@@H](CCC(=O)O)C(=O)N[C@@H](Cc1c[nH]c2ccccc12)C(=O)N[C@@H](CC(C)C)C(=O)N[C@@H](CCCCN)C(=O)N[C@@H](CC(N)=O)C(=O)N[C@@H](CCCCNC(=O)CCCC[C@@H]1SC[C@@H]2NC(=O)N[C@@H]21)C(N)=O` [Compound 24D] had an EC50 (Cyclase GLP-1 Receptor EC50 (nM), Table 3, methods of Example 16) of 0.77 nM.

Values taken from patent US8642544B2, “N-terminus conformationally constrained GLP-1 receptor agonist compounds” (Amylin Pharmaceuticals, LLC, priority 2009, dated 2014).
